These results are taken from PMC7305796 (Antiviral research, 2019).

For data set [1], the system named is VEEV TC-83. Briefly: microbe, parasite or virus in culture. In kind it is cell-based. The following applies: Venezuelan equine encephalitis virus, Vero 76, 48 h, read-out: VEEV EC50.
In data set [2] the test system is VEEV TC-83. It counts as cell-based, Venezuelan equine encephalitis virus.
The test system of data set [3] is VEEV Trinidad Donkey (TrD). Also noted: species or system BALB/c mice. Particulars: mouse, in vivo.
For data set [4] the following is noted: mouse, microsomes.
For data set [5] the following is noted: mouse.
For data set [6] the following is noted: mouse. The source holds these as a separate data set.
The test system of data set [7] is VEEV TC-83. Particulars: mouse, in vivo; cited from earlier work.

For the compound `CN1CCN(C)/C(=N/c2ccc([N+](=O)[O-])cc2C(=O)Nc2ccccc2)C1` [ML336, (E)-2-((1,4-dimethylpiperazin-2-ylidene)amino)-5-nitro-N-phenylbenzamide], in the data set on VEEV TC-83 [1], the concentration giving a half-maximal response (EC50) came out at 0.032 ± 0.005 µM. In addition, in the data set on VEEV TC-83 [2], the “VEEV log titer reduction” value was found to be 7.0 ± 0.4 log. Further, the “protection of mice (survival)” value in data set [3] is 100%. In addition, the “Microsomal stability, % parent after 1h” value in data set [4] was found to be 42.9%. Moreover, in data set [5], the “Plasma stability, % parent after 3h” value is recorded as 65.4%. Further, in data set [6], the “plasma protein binding, % bound at 1 μM” value is 85.0 / 77.0% and the “plasma protein binding, % bound at 10 μM” value is recorded as 85.0 / 77.0%. Besides, in the data set with VEEV TC-83 [7], the survival rate was 71%.
